Values joined by “and” are separate entries in the source; they are usually repeats but may differ in a detail not shown here. Equal values may be shown once. Read-outs that look alike come from different tables or passages of the source.

The text below walks through data of article PMC6789487, “Iminosugars: Effects of Stereochemistry, Ring Size, and N-Substituents on Glucosidase Activities” (Pharmaceuticals, 2019).

Assay [1] concerns the target almond β-glucosidase (EC 3.2.1.21). In words: Almond β-glucosidase inhibition, p-nitrophenyl β-D-glucopyranoside substrate, 96-well plate. To be noted: β-Glucosidase from almonds; NI: no inhibition. The format is biochemical. Here is the method: To broaden the scope of the analysis, β-glucosidase (almond) activity of the same set of compounds was conducted using the corresponding p-nitrophenyl β-D-glucopyranoside.
(§1) Biological assays: Yeast α-glucosidase (EC 3.2.1.20) and almond β-glucosidase (EC 3.2.1.21) activity was assessed using a 96-well plate assay. Assays contained 20 mM NaOAc at pH 6.8 (α-glucosidase) and pH 6.2 (β-glucosidase), 10 mM PIPES (piperazine-N,N′-bis(2-ethanesulfonic acid), 0.1 mM EDTA, α-glucosidase (5 μg/mL), β-glucosidase (6 μg/mL), and inhibitor (0.1–2 mM). Enzyme and inhibitor were equilibrated at 37 °C for 30 min. The reaction was initiated by the addition of p-nitrophenyl α-D-glucopyranoside (200 μM) or p-nitrophenyl β-D-glucopyranoside (200 μM), and then it was quenched with 100 μL of sodium carbonate 3.0 M after 25 min incubation at 37 °C. Assays were repeated in duplicate and data averaged.

In assay [2] the target is T1, α-glucosidase (from Saccharomyces cerevisiae) (Saccharomyces cerevisiae, UniProt P53341). In words: Yeast α-glucosidase inhibition, p-nitrophenyl α-D-glucopyranoside substrate, 96-well plate. The format is biochemical. Here is the method: as §1
For assay [3], the system named is Bacillus stearothermophilus α-glucosidase. More on the design: method as in PMID 9113331. To be noted: cited from earlier work; for % α-glucosidase inhibition: tested at 1 mM in Bacillus stearothermophilus.
A further assay relates to β-glucosidase. The following applies: cited from earlier work; for % β-glucosidase inhibition: at 1 mM.
Assay [4] concerns the target T1, α-glucosidase (from Saccharomyces cerevisiae). In words: Yeast α-glucosidase inhibition, p-nitrophenyl α-D-glucopyranoside substrate, 96-well plate. It is filed as biochemical. The following applies: tested concentration 15–2000 µM.
A further assay relates to yeast α-glucosidase. To be noted: at 1 mM; cited from earlier work.
The mark [5] stands for this setting: NI: no inhibition, read-out: Inhibition (µM) α-Glucosidase (IC50).
[6] abbreviates: read-out: Inhibition (µM) α-Glucosidase (IC50), NI: no inhibition.

T1 sequence (P53341 whole entry): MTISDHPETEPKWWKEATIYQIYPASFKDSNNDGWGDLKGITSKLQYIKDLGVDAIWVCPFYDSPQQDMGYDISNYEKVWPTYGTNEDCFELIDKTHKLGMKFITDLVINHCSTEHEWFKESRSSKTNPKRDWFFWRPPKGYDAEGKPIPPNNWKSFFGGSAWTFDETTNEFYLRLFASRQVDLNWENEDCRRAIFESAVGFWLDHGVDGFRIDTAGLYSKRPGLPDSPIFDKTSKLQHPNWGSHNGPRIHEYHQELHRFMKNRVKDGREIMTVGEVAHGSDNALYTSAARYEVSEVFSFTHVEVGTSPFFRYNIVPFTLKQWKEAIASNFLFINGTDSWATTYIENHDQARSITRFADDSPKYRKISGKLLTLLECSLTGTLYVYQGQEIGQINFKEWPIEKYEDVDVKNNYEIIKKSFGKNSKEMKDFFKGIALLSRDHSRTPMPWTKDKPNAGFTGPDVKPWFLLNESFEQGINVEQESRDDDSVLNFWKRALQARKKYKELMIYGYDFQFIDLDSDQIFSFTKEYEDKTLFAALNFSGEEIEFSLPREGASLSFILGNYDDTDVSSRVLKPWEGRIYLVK

As to `C#CCN1C[C@@H](O)[C@@H](O)[C@H](O)[C@@H]1CO` [26a, N-Propynyl-1,5-dideoxy-1,5-imino-L-gulitol], the 50% inhibitory concentration (IC50) in assay [1] was 1716 ± 12.8 µM; in assay [2] (setting [5]), over 2000 µM.

On to `OCCN1C[C@@H](O)[C@@H](O)[C@H](O)[C@H](O)C1` [28b, N-Hydroxyethyl-1,6-imino-D-mannitol], for which the IC50 in assay [1] and in assay [2] (setting [5]) was over 2000 µM in each case.

For `O[C@H]1[C@H](O)[C@H](O)CN(CCc2ccccc2)C[C@H]1O` [29b, N-Phenethyl-1,6-dideoxy-1,6-imino-D-mannitol], the IC50 in assay [1] and in assay [2] (setting [5]) was over 2000 µM in each case.

On to `OCCN1C[C@H](O)[C@@H](O)[C@H](O)[C@@H](O)C1` [41b, N-Hydroxyethyl-1,6-dideoxy-1,6-imino-L-iditol], for which the IC50 in assay [1] is 4 ± 1.4 µM; in assay [2] (setting [5]), 138 µM and 139 µM.

Consider `OC[C@@H]1NC[C@@H](O)[C@@H](O)[C@@H]1O` [nonsubstituted L-gulo-piperidine, 1-deoxy-L-gulo-nojirimycin], for which, in assay [3], the “% α-glucosidase inhibition” value was 30%. Moreover, the “% β-glucosidase inhibition” value in the assay on β-glucosidase was […].

In the case of `O[C@H]1[C@H](O)[C@H](O)CNC[C@H]1O` [D-manno-azepane, 1,6-dideoxy-1,6-imino-D-mannitol], the “% α-glucosidase inhibition” value in assay [3] is listed as 55%. Further, in the assay with β-glucosidase, the “% β-glucosidase inhibition” value is recorded as 1%.

As for `OCCN1C[C@H](O)[C@@H](O)[C@H](O)[C@H]1CO` [41a, N-Hydroxyethyl-1,5-dideoxy-1,5-imino-D-glucitol, reference compound], the IC50 in assay [1] was 4 ± 1.5 µM; in assay [2] (Inhibition (µM) α-Glucosidase (IC50), NI: no inhibition), 41 µM and 41.3 µM.

For `CCCCN1C[C@H](O)[C@@H](O)[C@H](O)[C@H]1CO` [40a, N-Butyl-1,5-dideoxy-1,5-imino-D-glucitol, reference compound], in assay [4], the “yeast α-glucosidase inhibition (in words)” value is “weak or no α-glucosidase inhibition”. Also, the IC50 in assay [2] (setting [6]) was over 2000 µM.

On to `CCCCN1C[C@@H](O)[C@@H](O)[C@H](O)[C@@H]1CO` [27a, N-Butyl-1,5-dideoxy-1,5-imino-L-gulitol], for which the IC50 in assay [2] (setting [6]) is over 2000 µM.

As to `OCCN1C[C@@H](O)[C@@H](O)[C@H](O)[C@@H]1CO` [28a, N-Hydroxyethyl-1,5-dideoxy-1,5-imino-L-gulitol], the IC50 in assay [1] and in assay [2] (setting [6]) was over 2000 µM each time.

Take `CCCCN1C[C@@H](O)[C@@H](O)[C@H](O)[C@H](O)C1` [27b, N-Butyl-1,6-dideoxy-1,6-imino-D-mannitol]: in assay [1], the IC50 is 184 µM and 185 µM.

For the compound `OC[C@H]1NC[C@H](O)[C@@H](O)[C@@H]1O` [DNJ, 1-deoxynojirimycin, reference compound], the Ki in assay [3] (Bacillus stearothermophilus α-glucosidase) was 0.44 µM; at β-glucosidase it was […]. Moreover, the IC50 in assay [1] was 33 µM and 33.1 µM.

In the case of `C#CCN1C[C@@H](O)[C@@H](O)[C@H](O)[C@H](O)C1` [26b, N-Propynyl-1,6-dideoxy-1,6-imino-D-mannitol], the half-inhibitory concentration (IC50) in assay [1] and in assay [2] (setting [5]) was over 2000 µM each time.

Regarding `OC[C@H]1[C@@H](O)[C@H](O)[C@H](O)CN1CCc1ccccc1` [29a, N-Phenethyl-1,5-dideoxy-1,5-imino-L-gulitol], the IC50 in assay [1] and in assay [2] (setting [5]) was over 2000 µM in each case.

`CCCCN1C[C@H](O)[C@@H](O)[C@H](O)[C@@H](O)C1` [40b, N-Butyl-1,6-dideoxy-1,6-imino-L-iditol]: the “% inhibition, α-glucosidase” value with yeast α-glucosidase was 14%. Also, the “yeast α-glucosidase inhibition (in words)” value in assay [4] is reported as “weak or no α-glucosidase inhibition”. For the same compound, the values for the IC50 in assay [1] and in assay [2] (setting [5]) were 80 ± 4.9 µM and over 2000 µM, respectively.

Take `C#CCN1C[C@H](O)[C@@H](O)[C@H](O)[C@@H](O)C1` [39b, N-Propynyl-1,6-dideoxy-1,6-imino-L-iditol]: the “yeast α-glucosidase inhibition (in words)” value in assay [4] is recorded as “weak or no α-glucosidase inhibition”. Moreover, the results for the IC50 in assay [1] and in assay [2] (setting [5]) were 3440 ± 70.6 µM and over 2000 µM, respectively.

Turning to `C#CCN1C[C@H](O)[C@@H](O)[C@H](O)[C@H]1CO` [39a, N-Propynyl-1,5-dideoxy-1,5-imino-D-glucitol], in assay [4], the “yeast α-glucosidase inhibition (in words)” value was “weak or no α-glucosidase inhibition”. For the same compound, the IC50 in assay [1] is 636 ± 8.5 µM; in assay [2] (setting [5]) it was over 2000 µM.
